{"source": "patent US12110258B2", "about": "“Coated fertilizer containing urease inhibitor” (SABIC Agri-Nutrients Company, priority 2018, dated 2024)", "experiment": "Inhibitor Stability Test (HPLC, non-degraded NBTPT remaining after storage)", "conditions": "2 weeks, RT (23 to 26° C.)", "procedure": "Inhibitor Stability Test: The stability test is used to indicate changes in stability of the urease inhibitor in different coated fertilizers or coating compositions under multiple conditions for different amounts of time. HPLC analysis was used to determine the amount of non-degraded inhibitor remaining at the end of the testing periods. Briefly, for the HPLC analysis procedure, approximately 4 grams of a sample and 20 ml of diluent was added into a 50 ml polypropylene tube. The sample was sonicated for 30 minutes with intermediate shaking and then vortexed for 1 hour using a vortex shaker. After vortexing, the sample was filtered using a 0.45μ syringe filter into a HPLC vial and injected into the HPLC.\nChromatographic Conditions:\n• Column: Phenomenex, Luna 5u Pnenyl hexyl 250*4.6, 5μ • Column oven temperature: 350° C. • Injection Vol.: 5 μL • Flow rate: 1.00 mL/min • Mobile Phase: Reservoir A—Milli Q Water; Reservoir C—Acetonitrile; Isocratic—Milli Q water/Acetonitrile (80:20% v/v) • Run Time: 15 minutes • Wavelength: 207 nm\nCalculation: Calibration standards were injected in duplicate and the calibration curve for NBTPT was constructed by plotting the concentration (mg/mL) in X-axis and Instrument response (area) in the Y-axis. The unknown concentrations of NBTPT in the samples were calculated using the formula y=mx+c with the appropriate dilution factor applied. […]", "data": [{"smiles": "CCCCNP(N)(N)=S", "note": "[compound 4, N-(n-butyl) thiophosphoric triamide]", "values": [{"measurement": "% NBTPT Degradation", "value": 0, "unit": "%"}]}]}
